The values below come from ChEMBL document CHEMBL4627285, “Multi-step parallel synthesis enabled optimization of benzofuran derivatives as pan-genotypic non-nucleoside inhibitors of HCV NS5B” (Bioorg Med Chem Lett, 2020).

Molecules are shown by their SMILES. ≈ marks a conversion by molar mass, not a printed value.

Data set [1] can be described thus: MRT in Wistar rat. The format is ADME. Conditions: in vivo.
Data set [2] is described as follows: Clearance in Wistar rat. The format is ADME. Conditions: in vivo.
The nature of data set [3]: AUC in Wistar rat. The format is ADME. Conditions: in vivo.
A short description of data set [4]: Solubility of compound in FASSIF at pH 6.5. The format is physicochemical.
Data set [5] can be described thus: Volume of distribution in Wistar rat. The format is ADME. Conditions: in vivo.

One may read the MRT as the average time that molecules of a dose stay in the body. A word on the clearance: it is a measure of how efficiently the substance is removed, as volume per time. By AUC is commonly meant the area under the concentration-time curve, a measure of exposure. A high value points to high exposure. Broadly, the solubility is the concentration that dissolves in the medium under given conditions. In general, Vd refers to the apparent volume that relates the amount in the body to the concentration in plasma or blood. Low values mean little distribution into tissue, high ones wide distribution into tissue.

Turning to `CNC(=O)c1c(-c2ccc(F)cc2)oc2cc(N(C)S(C)(=O)=O)c(-c3ccc4nc(C)n(Cc5ccc(F)cc5)c(=O)c4c3)cc12`, in data set [1], the MRT turned out to be 2.84 h. This molecule displayed a clearance in data set [2] of 27.4 mL/min/kg. The AUC in data set [3] was 1.06 µM·h. Besides, the solubility in data set [4] (FaSSIF, read-out: solubility) worked out at 70 µM (≈ 45 µg/mL). This molecule also had a Vd in data set [5] of 4.28 L/kg.
Consider `CNC(=O)c1c(-c2ccc(F)cc2)oc2cc(N(C)S(C)(=O)=O)c(-c3ccc4c(n3)-c3cc5c(F)cccc5n3CO4)cc12` [MK-8876], for which the MRT in data set [1] worked out at 18.1 h. In data set [2], this molecule came in with a clearance of 7.03 mL/min/kg. Also, the AUC in data set [3] was found to be 3.92 µM·h. The same molecule returned a solubility in data set [4] (simulated gi fluid) of 42 µM (≈ 25.8 µg/mL). For the same molecule, the Vd in data set [5] was 5.79 L/kg.
